Source: PubChem BioAssay AID248 (DTP/NCI, 2004)
Where “and” joins values, the source holds several entries; their conditions need not be identical. Equal values may be shown once. Inconclusive results and toxic doses are left out.

Tested on: L1210 leukemia ip in BDF1 mice, survival T/C
Experiment: NCI In Vivo Anticancer Drug Screen. Data for tumor model L1210 Leukemia (intraperitoneal) in B6D2F1 (BDF1) mice
Settings: endpoint: mean survival time, higher = longer survival
Procedure, shortened: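 Value reflects the ratio of survival in compound-treated mice to survival in vehicle-treated controls, with both groups carrying the same transplanted tumor.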

[1] = dose: 25.0 mg/kg/injection, schedule: Q04DX002 (ip), vehicle: saline
[2] = dose: 50.0 mg/kg/injection, schedule: Q04DX002 (ip), vehicle: saline
[3] = dose: 100.0 mg/kg/injection, schedule: Q01DX009 (ip), vehicle: Klucel (hydroxypropylcellulose) (HPC)
[4] = dose: 200.0 mg/kg/injection, schedule: Q01DX009 (ip), vehicle: Klucel (hydroxypropylcellulose) (HPC)
[5] = dose: 100.0 mg/kg/injection, schedule: Q04DX002 (ip), vehicle: saline
[6] = dose: 100.0 mg/kg/injection, schedule: Q04DX003 (ip), vehicle: saline with Tween-80
[7] = dose: 200.0 mg/kg/injection, schedule: Q04DX003 (ip), vehicle: saline with Tween-80
[8] = dose: 50.0 mg/kg/injection, schedule: Q01DX009 (ip), vehicle: Klucel (hydroxypropylcellulose) (HPC)
[9] = dose: 100.0 mg/kg/injection, schedule: Q01DX009 (ip), vehicle: saline with Tween-80
[10] = dose: 25.0 mg/kg/injection, schedule: Q01DX009 (ip), vehicle: saline with Tween-80
[11] = dose: 50.0 mg/kg/injection, schedule: Q01DX009 (ip), vehicle: saline with Tween-80
[12] = dose: 100.0 mg/kg/injection, schedule: Q04DX002 (ip), vehicle: saline with Tween-80

**Q.** What does the source list for `CC(=O)OC1CCC2C3CCC4=CC(=O)C(C(O)(C(F)(F)F)C(F)(F)F)CC4(C)C3CCC12C` (centres undefined)?
**A.** T/C (dose: 100.0 mg/kg/injection, schedule: Q01DX001 (sc), vehicle: steriod suspending solution): 106 % of control; T/C (dose: 200.0 mg/kg/injection, schedule: Q01DX001 (sc), vehicle: steriod suspending solution): 101 % of control; T/C (dose: 400.0 mg/kg/injection, schedule: Q01DX001 (sc), vehicle: steriod suspending solution): 101 % of control

**Q.** For `O=C1C=C(O)C(=O)C=C1O`, which T/C (dose: 3.0 mg/kg/injection, schedule: Q01DX009 (ip), vehicle: saline) is on record?
**A.** 111 % of control

**Q.** What about the T/C (dose: 5.0 mg/kg/injection, schedule: Q01DX001 (ip), vehicle: saline) of the same compound?
**A.** 103 % of control

**Q.** What about the T/C (dose: 6.0 mg/kg/injection, schedule: Q01DX009 (ip), vehicle: saline) of the same compound?
**A.** 98 % of control

**Q.** What about the T/C (dose: 10.0 mg/kg/injection, schedule: Q01DX001 (ip), vehicle: saline) of the same compound?
**A.** 101 % of control

**Q.** What about the T/C (dose: 10.0 mg/kg/injection, schedule: Q01DX009 (ip), vehicle: saline with Tween-80) of the same compound?
**A.** 100 % of control

**Q.** And the T/C (dose: 12.0 mg/kg/injection, schedule: Q01DX009 (ip), vehicle: saline)?
**A.** 103 % of control

**Q.** And the T/C (dose: 12.5 mg/kg/injection, schedule: Q04DX002 (ip), vehicle: saline)?
**A.** 105 % of control and 92 % of control

**Q.** What about the T/C (dose: 12.5 mg/kg/injection, schedule: Q04DX003 (ip), vehicle: saline) of the same compound?
**A.** 90 % of control

**Q.** What about the T/C (dose: 20.0 mg/kg/injection, schedule: Q01DX001 (ip), vehicle: saline) of the same compound?
**A.** 98 % of control

**Q.** What about the T/C [1] of the same compound?
**A.** 94 % of control

**Q.** And the T/C (dose: 40.0 mg/kg/injection, schedule: Q01DX009 (ip), vehicle: saline with Tween-80)?
**A.** 92 % of control

**Q.** And the T/C [2]?
**A.** 108 % of control

**Q.** Which results are given for `CNC(=N)c1ccc(NC(=N)c2ccc(NC(=O)Nc3ccc(C(=N)Nc4ccc(C(=N)NC)cc4)cc3)cc2)cc1`?
**A.** T/C (dose: 0.25 mg/kg/injection, schedule: Q01DX Z (ip), vehicle: water): 98 % of control; T/C (dose: 0.5 mg/kg/injection, schedule: Q01DX Z (ip), vehicle: water): 96 % of control; T/C (dose: 1.0 mg/kg/injection, schedule: Q01DX Z (ip), vehicle: water): 96 % of control; T/C (dose: 1.87 mg/kg/injection, schedule: Q01DX Z (ip), vehicle: water): 92 % of control; T/C (dose: 2.0 mg/kg/injection, schedule: Q01DX Z (ip), vehicle: water): 104 % of control; T/C (dose: 3.75 mg/kg/injection, schedule: Q01DX Z (ip), vehicle: water): 156 % of control; T/C (dose: 7.0 mg/kg/injection, schedule: Q01DX Z (ip), vehicle: carboxymethylcellulose (CMC)): 165 % of control; T/C (dose: 7.5 mg/kg/injection, schedule: Q01DX Z (ip), vehicle: water): 246 % of control; T/C (dose: 10.0 mg/kg/injection, schedule: Q01DX Z (ip), vehicle: water): 209 % of control; T/C (dose: 14.0 mg/kg/injection, schedule: Q01DX Z (ip), vehicle: carboxymethylcellulose (CMC)): 160 % of control; T/C (dose: 25.0 mg/kg/injection, schedule: Q01DX Z (oral), vehicle: water): 100 % of control; T/C (dose: 50.0 mg/kg/injection, schedule: Q01DX Z (oral), vehicle: water): 98 % of control; T/C (dose: 100.0 mg/kg/injection, schedule: Q01DX Z (oral), vehicle: water): 104 % of control; T/C (dose: 200.0 mg/kg/injection, schedule: Q01DX Z (oral), vehicle: water): 100 % of control

**Q.** Which results are given for `CCCCN=C1NC(N)=NC(C)(C)N1`?
**A.** T/C (dose: 100.0 mg/kg/injection, schedule: Q01DX001 (ip), vehicle: Klucel (hydroxypropylcellulose) (HPC)): 98 % of control; T/C (dose: 200.0 mg/kg/injection, schedule: Q01DX001 (ip), vehicle: Klucel (hydroxypropylcellulose) (HPC)): 102 % of control

**Q.** With `O=C(Nc1cccc(O)c1)c1ccccc1Cl` as the compound, how does the T/C [3] read?
**A.** 96 % of control

**Q.** What about the T/C [4] of the same compound?
**A.** 97 % of control

**Q.** And the T/C (dose: 400.0 mg/kg/injection, schedule: Q01DX009 (ip), vehicle: Klucel (hydroxypropylcellulose) (HPC))?
**A.** 92 % of control

**Q.** What does the source list for `C=CCSCC(=O)Cl`?
**A.** T/C (dose: 25.0 mg/kg/injection, schedule: Q01DX009 (ip), vehicle: saline): 102 % of control; T/C (dose: 50.0 mg/kg/injection, schedule: Q01DX009 (ip), vehicle: saline): 100 % of control; T/C (dose: 100.0 mg/kg/injection, schedule: Q01DX009 (ip), vehicle: saline): 110 % of control; T/C [5]: 95 % of control

**Q.** For `O=C(NC(C(O)CO)C(O)C(O)CO)c1ccccc1` (centres undefined), which T/C (dose: 100.0 mg/kg/injection, schedule: Q04DX003 (ip), vehicle: saline) is on record?
**A.** 104 % of control

**Q.** What about the T/C (dose: 200.0 mg/kg/injection, schedule: Q04DX003 (ip), vehicle: saline) of the same compound?
**A.** 105 % of control

**Q.** And the T/C (dose: 400.0 mg/kg/injection, schedule: Q04DX003 (ip), vehicle: saline)?
**A.** 102 % of control

**Q.** Which results are given for `O=C1CCCCCCCCC(=O)CCCCCCCC1`?
**A.** T/C [6]: 89 % of control; T/C [7]: 86 % of control; T/C (dose: 400.0 mg/kg/injection, schedule: Q04DX003 (ip), vehicle: saline with Tween-80): 100 % of control

**Q.** `Nc1c2ccccc2nc2ccccc12` was tested. Which T/C (dose: 5.0 mg/kg/injection, schedule: Q01DX009 (ip), vehicle: Klucel (hydroxypropylcellulose) (HPC)) did it give?
**A.** 105 % of control

**Q.** What about the T/C (dose: 10.0 mg/kg/injection, schedule: Q01DX009 (ip), vehicle: Klucel (hydroxypropylcellulose) (HPC)) of the same compound?
**A.** 98 % of control

**Q.** What about the T/C (dose: 15.0 mg/kg/injection, schedule: Q01DX009 (ip), vehicle: Klucel (hydroxypropylcellulose) (HPC)) of the same compound?
**A.** 103 % of control

**Q.** And the T/C [6]?
**A.** 86 % of control

**Q.** What about the T/C [7] of the same compound?
**A.** 86 % of control

**Q.** With `CCOC(=O)N/N=C/c1cccc([N+](=O)[O-])c1` as the compound, how does the T/C (dose: 75.0 mg/kg/injection, schedule: Q01DX001 (ip), vehicle: saline) read?
**A.** 104 % of control

**Q.** And the T/C (dose: 150.0 mg/kg/injection, schedule: Q01DX001 (ip), vehicle: saline)?
**A.** 100 % of control

**Q.** What about the T/C (dose: 300.0 mg/kg/injection, schedule: Q01DX001 (ip), vehicle: saline) of the same compound?
**A.** 101 % of control

**Q.** How did the T/C (dose: 50.0 mg/kg/injection, schedule: Q01DX001 (ip), vehicle: carboxymethylcellulose (CMC)) turn out when `CC(C)=CC(=O)C1C(=O)c2ccccc2C1=O` was run?
**A.** 96 % of control

**Q.** And the T/C (dose: 100.0 mg/kg/injection, schedule: Q01DX001 (ip), vehicle: carboxymethylcellulose (CMC))?
**A.** 90 % of control

**Q.** For `CC1=CC2c3c([nH]c(=S)[nH]c3=O)OC(C)(C)C2CC1` (centres undefined), which T/C [8] is on record?
**A.** 99 % of control

**Q.** And the T/C [3]?
**A.** 96 % of control

**Q.** And the T/C [4]?
**A.** 96 % of control

**Q.** Which results are given for `Cc1cnc2c(Nc3ccc(Cl)cc3)cc(N)nc2n1`?
**A.** T/C (dose: 12.5 mg/kg/injection, schedule: Q01DX001 (ip), vehicle: other): 94 % of control; T/C (dose: 25.0 mg/kg/injection, schedule: Q01DX001 (ip), vehicle: other): 96 % of control; T/C (dose: 25.0 mg/kg/injection, schedule: Q04DX003 (ip), vehicle: Klucel (hydroxypropylcellulose) (HPC)): 96 % of control; T/C (dose: 50.0 mg/kg/injection, schedule: Q01DX001 (ip), vehicle: other): 94 % of control and 105 % of control; T/C [8]: 94 % of control; T/C (dose: 50.0 mg/kg/injection, schedule: Q04DX003 (ip), vehicle: Klucel (hydroxypropylcellulose) (HPC)): 101 % of control

**Q.** Which results are given for `CCCCCCCCCCCC(=O)NC(=S)Nc1ccccc1C(F)(F)F`?
**A.** T/C (dose: 100.0 mg/kg/injection, schedule: Q04DX003 (ip), vehicle: Klucel (hydroxypropylcellulose) (HPC)): 104 % of control; T/C (dose: 200.0 mg/kg/injection, schedule: Q04DX003 (ip), vehicle: Klucel (hydroxypropylcellulose) (HPC)): 92 % of control; T/C (dose: 400.0 mg/kg/injection, schedule: Q04DX003 (ip), vehicle: Klucel (hydroxypropylcellulose) (HPC)): 92 % of control

**Q.** `COc1ccccc1-c1c(C(=O)O)cccc1[N+](=O)[O-]` was tested. Which T/C [9] did it give?
**A.** 98 % of control

**Q.** What about the T/C (dose: 200.0 mg/kg/injection, schedule: Q01DX009 (ip), vehicle: saline with Tween-80) of the same compound?
**A.** 106 % of control

**Q.** What about the T/C (dose: 400.0 mg/kg/injection, schedule: Q01DX009 (ip), vehicle: saline with Tween-80) of the same compound?
**A.** 101 % of control

**Q.** Which results are given for `O=C(NC(=S)NNC(=S)NNc1ccccc1)c1ccccc1`?
**A.** T/C (dose: 12.5 mg/kg/injection, schedule: Q04DX002 (ip), vehicle: saline with Tween-80): 101 % of control; T/C [10]: 102 % of control; T/C (dose: 25.0 mg/kg/injection, schedule: Q04DX002 (ip), vehicle: saline with Tween-80): 107 % of control and 90 % of control; T/C [11]: 115 % of control; T/C (dose: 50.0 mg/kg/injection, schedule: Q04DX002 (ip), vehicle: saline with Tween-80): 108 % of control; T/C [12]: 96 % of control and 101 % of control and 110 % of control; T/C (dose: 200.0 mg/kg/injection, schedule: Q04DX002 (ip), vehicle: saline with Tween-80): 108 % of control

**Q.** With `NC1=NC(CNC(=O)c2cccc([N+](=O)[O-])c2)N(c2cccc(Cl)c2)C(N)=N1` (centres undefined) as the compound, how does the T/C (dose: 50.0 mg/kg/injection, schedule: Q01DX Z (ip), vehicle: methylcellulose (MC)) read?
**A.** 93 % of control

**Q.** Which results are given for `CC1(CBr)OCCCO1`?
**A.** T/C [10]: 96 % of control; T/C [1]: 93 % of control; T/C [11]: 103 % of control; T/C [2]: 93 % of control; T/C [9]: 103 % of control; T/C [12]: 95 % of control; T/C [5]: 93 % of control
